From patent publication US7141586B2, “Nicotinamide derivatives useful as PDE4 inhibitors” (Pfizer Inc., priority 2003, dated 2006)

test system: TNFα release from human peripheral blood mononuclear cells; experiment: Inhibition of LPS-stimulated TNFα release from human peripheral blood mononuclear cells (TNFα screen); format: cell-based; conditions: human PBMC stimulated with lipopolysaccharide, 18 hours incubation, TNFα in supernatant by ELISA
Experimental: Venous blood is collected from healthy volunteers and the mononuclear cells purified by centrifugation through Histopaque (Ficoll) cushions. TNFα production from these cells is stimulated by addition of lipopolysaccharide. After 18 hours incubation in the presence of LPS, the cell supernatant is removed and the concentration of TNFα in the supernatant determined by ELISA. Addition of PDE4 inhibitors reduces the amount of TNFα produced. An IC50 is determined which is equal to the concentration of compound that gives 50% inhibition of TNFα production as compared to the LPS stimulated control wells.

| Compound | IC50 |
| --- | --- |
| Syn-5-fluoro-N-{4-[(1H-imidazole-5-carbonyl)-amino]-cyclohexyl}-2-(3-methylsulfanyl-phenoxy)-nicotinamide [Example 18] | 0.6 nM |
| Syn-5-fluoro-N-[4-(4-hydroxy-2-methoxy-benzoylamino)-cyclohexyl]-2-(3-methylsulfanyl-phenoxy)-nicotinamide [Example 22] | 0.07 nM |
| Syn-5-fluoro-N-[4-(5-chloro-2-hydroxy-benzoylamino)-cyclohexyl]-2-(3-methylsulfanyl-phenoxy)-nicotinamide [Example 5] | 0.15 nM |
| Syn-5-fluoro-N-{4-[(4-methyl-1H-imidazole-2-carbonyl)-amino]-cyclohexyl}-2-(3-methylsulfanyl-phenoxy)-nicotinamide [Example 4] | 0.15 nM |
| Syn-5-fluoro-2-(3-methylsulfanyl-phenoxy)-N-{4-[(2,3-dimethyl-1H-pyrazole-5-carbonyl)-amino]-cyclohexyl}-nicotinamide [Example 3] | 0.37 nM |
| Syn-5-fluoro-N-[4-(2-hydroxy-benzoylamino)-cyclohexyl]-2-(3-methylsulfanyl-phenoxy)-nicotinamide [Example 11] | 0.05 nM |
| Syn-5-fluoro-N-[4-(2-hydroxy-4-methyl-benzoylamino)-cyclohexyl]-2-(3-methylsulfanyl-phenoxy)-nicotinamide [Example 10] | 0.05 nM |
| CSc1cccc(Oc2ncc(F)cc2C(=O)N[C@H]2CC[C@@H](NC(=O)c3cc(C)ccc3O)CC2)c1 [Example 1, Syn-5-Fluoro N-[4-(2-hydroxy-5-methyl-benzoylamino)-cyclohexyl]-2-(3-methylsulfanyl-phenoxy)-nicotinamide] | 0.4 nM |

test system: not given; experiment: not given; conditions: not given

| Compound | melting point |
| --- | --- |
| CSc1cccc(Oc2ncc(F)cc2C(=O)N[C@H]2CCCC[C@H]2O)c1 (relative stereo) [Example 31, 5-Fluoro-N-[cis-2-hydroxy-cyclohexyl]-2-(3-methylsulfanyl-phenoxy)-nicotinamide] | 99 to 101 °C |
| CSc1cccc(Oc2ncc(F)cc2C(=O)N[C@H]2CCCC[C@@H]2CO)c1 (relative stereo) [Example 56, 5-Fluoro-N-[trans-2-hydroxymethyl-cyclohexyl]-2-(3-methylsulfanyl-phenoxy)-nicotinamide] | 128 to 129 °C |
| CSc1cccc(Oc2ncc(F)cc2C(=O)N[C@H]2CC[C@@H](CO)CC2)c1 [Example 60, 5-Fluoro-N-(cis-4-hydroxymethyl-cyclohexyl)-2-(3-methylsulfanyl-phenoxy)-nicotinamide] | 123 to 126 °C |
